Consider three molecules from patent US10376535B2, “Therapy for malignant disease” (UNIVERSITY OF ROCHESTER, priority 2015, dated 2019).

One experiment deals with SKOV-3 cells. In words: Tumor size in SKOV-3 xenograft, cisplatin-resistant murine model of ovarian cancer. Format: in vivo. As to conditions: SKOV-3 xenograft nude mice; IP; oligos 7 mg/kg, cisplatin 10 mg/kg once a week; measured every 3 days. As to the method: Four to six week-old immunodeficient nude mice were maintained at a temperature of ˜22° C. and a relative humidity of ˜55%, with a 12 hour light/dark cycle. The mice used were NU/NU; strain code 088/homozygous, obtained from Charles River Laboratories, Wilmington, Mass. The inoculation of the mice began with culturing SKOV-3 cells to 80% confluence, washing the SKOV-3 cells in PBS twice, and harvesting the cells by trypsination. The harvested cells were then pooled in complete medium, washed in PBS twice, and 2×10^6 cells/inoculate were suspended in 0.1 ml of matrigel. This cell suspension was used to inoculate the mice subcutaneously in the flank of each mouse. Mice with developing tumors after two weeks were randomly assigned to experimental groups. Mice were treated intraperitoneally with either vehicle control (control group; 7 animals) or Antisense-1 (7 mg/kg bwt) or scrambled PTO (7 mg/kg bwt) for 7 days. In another arm mice were treated with cisplatin (10 mg/kg, once a week), or scrambled PTO (7 mg/kg, 5 times/week)+ cisplatin (10 mg/kg, IP, once a week) or Antisense-1 (7 mg/kg, IP, once a week)+ Cisplatin (10 mg/kg, IP, once a week). Mice were weighed and tumor size was measured using a digital caliper every 3 days.

Experiment [1] concerns PD-L1. As to the kind of experiment: PD-L1 immunofluorescence after MeTC7 treatment, human ovarian carcinoma cells (SKOV-3, OVCAR-8, IGROV-1). The class given is cell-based. The conditions noted are these: MeTC7 125 nM, 4-6 hours. As to the method: (§1) Co-localization of VDR and PD-L1 was performed following the method in the Examples above. To determine the expression level of PD-L1 after MeTC7 treatment (125 nM), 10000 cells/well of SKOV-3, OVCAR-8 human ovarian carcinoma cells, IGROV-1 human ovarian carcinoma cells, and ID-8 murine ovarian cancer cells were seeded in an 8 well slide chamber (Nunc) and allowed to adhere overnight in FBS supplemented DMEM media. After 18 hours, the media was removed and the cells were treated with vehicle or MeTC7 supplemented DMEM serum free media for 4-6 hours. Cells maintained in DMEM medium were fixed with formalin solution for 15 mins, washed with PBST solution and blocked with Donkey serum 5% in PBST for 30 minutes. Cells were carefully washed and stained with PD-L1 primary antibody overnight in PBST. The cells were washed and stained with corresponding fluorescence linked secondary antibody for 1 hour. Cells were washed repeatedly with PBST (200 μL) five times. Casing on the chambers were removed and DAPI was applied in a mounting medium and images were recorded using an epi or confocal microscopy.

Experiment [2] concerns PD-L1. In words: PD-L1 immunofluorescence after MeTC7 treatment, DAOY medulloblastoma cells. As to conditions: MeTC7 125 nM, confocal microscopy. Format: cell-based, human. As to the method: FIG. 12 is a fluorescent micrograph depicting the effects of MeTC7 (125 nM) treatment on immune checkpoint PD-L1 expression in DAOY (human) medulloblastoma cells. Treated/naïve DAOY cells were analyzed by spinning disk confocal microscopy after staining with PD-L1 primary and suitable secondary antibodies.
as §1, with “Cells were washed repeatedly with PBST (200 μL) five times.” left out

Experiment [3] deals with PD-L1. As to the kind of experiment: PD-L1 immunofluorescence after MeTC7 treatment, ID-8 murine ovarian cancer cells. As to conditions: MeTC7 125 nM, 4-6 hours. Format: cell-based. As to the method: as §1
Experiment [4] deals with PD-L1. As to the kind of experiment: PD-L1 expression after MeTC7 treatment, melanoma cells. Format: cell-based.
The next experiment concerns PD-1. In words: RT-PCR of PD-1 in donor PBMCs incubated with recombinant HE4. The class given is cell-based, human. The conditions noted are these: HE4 5.4 nM, donor PMBCs, within 6 hours. As to the method: Ficoll-Paque density gradient centrifugation was used to isolate PBMC from heparinized venous blood. Unfractionated PBMC were suspended in serum free RPMI1640 medium. Then the cells were incubated with recombinant HE4 (5.4 nM) or vehicle for 6 hours. TRIzol reagent was used to isolate the total RNA, and the first strand cDNA was made by SuperScript III reverse transcriptase. RT-PCR for the cDNA was done with PD-1 or GAPDH (internal control) gene specific primers. The primer sequences used for PD-1 are F-[…] (SEQ ID NO:4); R-[…] SEQ ID NO:5). The primer sequences used for internal control (GAPDH) are F-AATCCCATCACCATCTTCC SEQ ID NO:6); R-gTCCTTCCACgATACCAAAg SEQ ID NO:7).

Regarding `N.N.[Cl][Pt][Cl]` [cisplatin], in the experiment on SKOV-3 cells, the “percent change in tumor size” value is recorded as “an increase in tumor size at least initially”.

With `CC(C)CCC[C@@H](C)C1CC[C@H]2C34C=CC5(C[C@@H](OC(=O)CBr)CC[C@]5(C)[C@H]3CC[C@]12C)n1c(=O)n(C)c(=O)n14` (stereo partly drawn) [MeTC7], the PD-L1 expression entry is given as “down regulate” with PD-L1 [1], “reduced PD-L1 expression” in the experiment on PD-L1 [2], “down regulate” with PD-L1 [3] and “a similar effect was not found” with PD-L1 [4].

B1: recombinant HE4: exogenous recombinant human epididymis protein 4 added to PBMCs (protein, UniProt Q14508 31-124, looked up)
WAP four-disulfide core …: EKTGVCPELQADQNCTQECVSDSECADNLKCCSAGCATFCSLPNDKEGSCPQVNINFPQLGLCRDQCQVDSQCPGQMKCCRNGCGKVSCVTPNF
As for B1, in the experiment with PD-1, the “increase in PD-1 expression (PD-1/GAPDH ratio)” value amounted to 77.7%.
